Results taken from patent US10391100B2, “Combination of aurora kinase inhibitors and anti-CD20 antibodies” (Millennium Pharmaceuticals, Inc., priority 2008, dated 2019).
Marks after values point to notes of the source that are not given here.

Key:
Type in all cases: in vivo, human (in female SCID mice)
[1] = tested on: WSU-DLBCL2-Luc disseminated lymphoma; assay: Disseminated WSU-DLBCL2-Luc lymphoma model, first study (QD dosing); settings: for Median Survival / Maximum Percent Body Weight Change (%) / TGI Mean (%): 1st study; for Maximum Percent Body Weight Change (%) / TGI Mean (%): Day 21; for Pct Decrease in AUC Relative to Mean Vehicle AUC: first study, PO, QD, log10 photon flux vs day AUC, Days 0 through 21
Experimental: (§1) The Ly19-Luc, WSU-DLBCL2-Luc and PHTX-22-06 models described in these studies are human DLBCL cell lines, transfected with luciferase. These models were grown in immununocomprimised mice subcutaneously on the flank, or disseminated throughout the body by tail vain injection.
(§2) Two separate studies were conducted in the WSU-DLBCL2-luc model.

[2] = tested on: Ly19 lymphoma (cell line Ly-19); assay: Sub-cutaneous Ly19 lymphoma model, tumor volume (Example 1); settings: for Pct Decrease in AUC Relative to Mean Vehicle AUC: Days 0 through 21; for Change in Slope: log tumor volume, slope (day 21 to 62) − slope (day 13 to 21)
Experimental: (§3) Tumor growth was monitored with vernier calipers. The mean tumor volume was calculated using the formula V=W^2×L/2.
P-values <0.05 were considered significant.

[3] = tested on: Ly19-Luc disseminated lymphoma; assay: Disseminated Ly19-Luc lymphoma model, Experiment #1 (Example 4); settings: for Maximum Percent Body Weight Change / TGI Mean / BW change (maximum body-weight change): Day 24; for TGI: calculated on Day 24; for number of mice remaining by the end of the study: Day 132
Experimental: (§4) The in vivo experiments using the disseminated Ly19-Luc lymphoma model were performed in duplicate. […] Tumor volumes were estimated once weekly throughout the inoculation and treatment period using the Xenogen IVIS® imaging system (Xenogen Corporation, Alameda, Calif.). To image the mice, an intraperitoneal (IP) injection of […] (15 mg/ml), was administered 10 minutes prior to procedure and mice were anesthetized with 2% isofluorane 2-5 minutes throughout the scanning procedure. For Xenogen imaging, each mouse was imaged on dorsal and ventral views. The sum of 2 photon flux measurements was used for the analysis.
The antitumor effects of each treatment group were determined by calculating the percent TGI ([Δ control mean tumor volume−Δ treated mean tumor volume]×100/Δ control mean tumor volume) at the end of treatment. Mice were weighed once weekly for the duration of the study and the maximal percent body weight change was determined during the treatment period. […] Animals were removed from the study when they reached humane endpoints (>20%, body weight loss or paralysis of either both front or hind limbs), the medial survival for each group was determined and the survival rate of treatment groups were compared to control. Treatment groups were evaluated to determine if the effects of combination treatment were synergistic, additive or sub-additive relative to control.
(§5) The photon flux data was log10 transformed, and these values over the treatment period were compared across treatment groups to assess if the differences in the trends over time were statistically significant. A mixed-effects linear regression model using a restricted maximum likelihood was fit to the data. An ANOVA test was performed to determine if there was a statistically significant difference between the treatment groups and control.
(§6) Log10-transformed fold change photon flux values (tumor burden) from baseline were also used to calculate AUC values for each animal. The AUC values from the mice in a given treatment group were then averaged together to generate mean AUC values and associated standard errors.
(§7) A synergy score calculation was used to address the question of whether the effects of the combination treatment were synergistic, additive, or sub-additive relative to the individual treatments.
(§8) To compare the tumor regrowth rates after stopping treatment, mixed-effects piecewise linear regression models were built separately for each treatment group with mice monitored beyond treatment period. All P-values <0.05 were called significant in this report.
(§9) The survival rates of the animals in each treatment group were plotted using Kaplan-Meier curves and the log rank test was used to compare survival rates among pairs of treatment groups.

[4] = tested on: WSU-Luc lymphoma (cell line WSU-DLCL2); assay: Subcutaneous WSU-Luc lymphoma model, tumor volume (Example 2); settings: Compound III-1 3 mg/kg, PO, qd; Days 0 through 20
Experimental: as §3
(§10) The statistical methodology used in these experiments was the same as that described in Example 1 above.

[5] = tested on: Ly19-Luc disseminated lymphoma; assay: Disseminated Ly19-Luc lymphoma model, Experiment #2 (Example 4)
Experimental: as §4
The antitumor effects of each treatment group were determined by calculating the percent TGI ([Δ control mean tumor volume−Δ treated mean tumor volume]×100/Δ control mean tumor volume) at the end of treatment. Mice were weighed once weekly for the duration of the study and the maximal percent body weight change was determined during the treatment period. Animals were monitored for survival up to 132 days following treatment. Animals were removed from the study when they reached humane endpoints (>20%, body weight loss or paralysis of either both front or hind limbs), the medial survival for each group was determined and the survival rate of treatment groups were compared to control. Treatment groups were evaluated to determine if the effects of combination treatment were synergistic, additive or sub-additive relative to control.
as §5, §6, §7, §8, §9
Mice were dosed according to the following treatment groups:
Mice were weighed and tumor volumes were estimated with Xenogen signal (average photon flux) calculation once a week throughout the inoculation and the treatment period and after the treatment until the end of study.
Treatment started 7 days following the inoculation of tumor cells into the tail vein, with an average photon flux measurement of 1×10^7 on treatment Day 0.

[6] = tested on: primary diffuse large B-cell lymphoma PHTX-22-06; assay: Sub-cutaneous primary diffuse large B-cell lymphoma model PHTX-22-06, tumor volume (Example 3); settings: Compound III-1 20 mg/kg, PO, bid; Days 0 through 27
Experimental: Tumor growth was monitored with vernier calipers. The mean tumor volume was calculated using the formula V═W^2×L/2.
The animals were inoculated with 2×5 mm^3 tumor mass from primary […] tumor chunk at implant site Flank (trocar).
as §10

[7] = tested on: WSU-DLBCL2-Luc disseminated lymphoma; assay: Disseminated WSU-DLBCL2-Luc lymphoma model, second study (BID dosing); settings: for Median Survival / Maximum Percent Body Weight Change (%) / TGI Mean (%): 2nd study; for TGI Mean (%): Day 22; for number of mice remaining at the end of the study: Day 130; for Pct Decrease in AUC Relative to Mean Vehicle AUC: second study, PO, BID, log10 photon flux vs day AUC, Days 0 through 21
Experimental: as §1, §2

[8] = Compound III-1 3 mg/kg po/QD × 21 days
[9] = Compound III-1 10 mg/kg po/QD × 21 days
[10] = Compound III-1 3 mg/kg Po/QD × 21 days
[11] = Compound III-1 10 mg/kg Po/QD × 21 days
[12] = Compound III-1 3 mg/kg PO QD × 3 wks, Day 23
[13] = Compound III-1 10 mg/kg po/BID × 21 days
[14] = Compound III-1 20 mg/kg po/QD × 21 days (dose holiday Day 9 to Day 13)

COc1cc(Nc2ncc3c(n2)-c2ccc(Cl)cc2C(c2c(F)cccc2OC)=NC3)ccc1C(=O)O [Compound III-1, 4-{[9-chloro-7-(2-fluoro-6-methoxyphenyl)-5H-pyrimido[5,4-d][2]benzazepin-2-yl]amino}-2-methoxybenzoic acid]
Median Survival [1, 8]: 46.5 days | Maximum Percent Body Weight Change (%) [1, 8]: −3.1, Day 21% | TGI Mean (%) [1, 8]: 50.9, Day 21% | Median Survival [1, 9]: 44 days | Maximum Percent Body Weight Change (%) [1, 9]: −4.5, Day 21% | TGI Mean (%) [1, 9]: 88.2, Day 21% | TGI ([1]; Compound III-1 alone 3 mg/kg QD): 50.9% | TGI ([1]; Compound III-1 alone 10 mg/kg QD): 88.2% | Pct Decrease in AUC Relative to Mean Vehicle AUC ([1]; Compound III-1 3 mg/kg): 21.1% | Pct Decrease in AUC Relative to Mean Vehicle AUC ([1]; Compound III-1 10 mg/kg): 42.0% | Pct Decrease in AUC Relative to Mean Vehicle AUC ([2]; Compound III-1 3 mg/kg qd): 22.9 Pct | Pct Decrease in AUC Relative to Mean Vehicle AUC ([2]; Compound III-1 10 mg/kg bid): 105.6 Pct | Pct Decrease in AUC Relative to Mean Vehicle AUC ([2]; Compound III-1 10 mg/kg qd): 79.3 Pct | Change in Slope ([2]; Compound III-1 10 mg/kg bid): 0.018 | Change in Slope ([2]; Compound III-1 10 mg/kg qd): 0.040 | Median Survival [3, 10]: 40 days | Maximum Percent Body Weight Change [3, 10]: +6.2, Day 24% | TGI Mean [3, 10]: 89.6, % | Median Survival (Days) [3, 8]: 40, p < 0.01^c Days | BW change (maximum body-weight change) [3, 8]: +6.2, Day 24% | TGI [3, 8]: 89.6, p < 0.001% | Median Survival [3, 11]: 63.5 days | Maximum Percent Body Weight Change [3, 11]: +3.3, Day 24% | TGI Mean [3, 11]: 100, % | Median Survival (Days) [3, 9]: 63.5, p < 0.01 Days | BW change (maximum body-weight change) [3, 9]: +3.3%, Day 24 | TGI [3, 9]: 100, p < 0.001% | tolerability ([3]; Compound III-1 at 3 or 10 mg/kg on a QD schedule): well tolerated | number of mice remaining by the end of the study ([3]; single agent Compound III-1 3 mg/kg): 1 out of 10 | number of mice remaining by the end of the study ([3]; single agent Compound III-1 10 mg/kg): 3 out of 10 | Pct Decrease in AUC Relative to Mean Vehicle AUC [4]: 19.4 Pct | Mean BW Day 0 ([5]; Compound III-1 3 mg/kg PO QD × 3 wks, Day 0 (baseline)): 19.2 g | Maximum BW Change (%) Day 22 ([5]; Compound III-1 3 mg/kg PO QD × 3 wks, Day 22): +3.1% | Mean BW Day 22 ([5]; Compound III-1 3 mg/kg PO QD × 3 wks, Day 22, in g (unit assumed)): 19.81 | Mean Photon Flux (Day 23) [5, 12]: 2.34E+08 | TGI Day 23 [5, 12]: 87.7% | tolerability ([5]; Compound III-1 at 3 mg/kg on a QD schedule): well tolerated | Mean AUC ([5]; log10 fold change photon flux vs day, up to Day 23, Compound III-1 3 mg/kg QD): 18.2 | Pct Decrease in AUC Relative to Mean Vehicle AUC [6]: 79.3 Pct | Median Survival [7, 13]: 70 days | Maximum Percent Body Weight Change (%) ([7]; Compound III-1 10 mg/kg po/BID × 21 days, Day 19): −3.9, Day 19% | TGI Mean (%) [7, 13]: 99.7, Day 22% | Median Survival [7, 14]: 111.5 days | Maximum Percent Body Weight Change (%) ([7]; Compound III-1 20 mg/kg po/QD × 21 days (dose holiday Day 9 to Day 13), Day 9): −8.9, Day 9% | TGI Mean (%) [7, 14]: 99.7, Day 22% | TGI ([7]; Compound III-1 alone 10 mg/kg BID): 99.7% | TGI ([7]; Compound III-1 alone 20 mg/kg BID): 99.7% | mean maximum body weight loss ([7]; Compound III-1 at 20 mg/kg BID, Day 9): 8.9% | number of mice remaining at the end of the study ([7]; 10 mg/kg single agent Compound III-1): 1 out of 10 | number of mice remaining at the end of the study ([7]; 20 mg/kg Compound III-1 single agent): 5 out of 10 | Pct Decrease in AUC Relative to Mean Vehicle AUC ([7]; Compound III-1 10 mg/kg): 94.0% | Pct Decrease in AUC Relative to Mean Vehicle AUC ([7]; Compound III-1 20 mg/kg): 96.6%
